From the supplement of paper PMC10307832

Tests used:
Assay in all cases: relative viability (nuclei count vs DMSO), 5 days (fraction); higher = more cells survive
[1] = compound: C1=CC=C2C(=C1)N=C(S2)C(C#N)C3=NC(=NC=C3)NCCC4=CN=CC=C4 + CC(=O)Nc1cccc(-n2c(=O)n(C3CC3)c(=O)c3c(Nc4ccc(I)cc4F)n(C)c(=O)c(C)c32)c1 [Trametinib] (partner 0.02 µM)
How it was run: (§1)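 Lung cancer cell lines in 1536-well plates were dosed by pin tool the day after seeding, either with one drug alone or with a fixed anchor-drug dose plus five library-drug doses (not always all listed) in √10 steps. After 5 days, cells were fixed and their nuclei stained in one step (final 0.05% Triton X-100, 1% formaldehyde, 1 ug/ml Hoechst), then counted on 4× images. Relative viability is the nuclei count in treated wells divided by that in vehicle wells. Values are medians of duplicate plates.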

[2] = compound: C1=CC=C2C(=C1)N=C(S2)C(C#N)C3=NC(=NC=C3)NCCC4=CN=CC=C4 + COc1cccc2cc(-c3nc([C@H]4CC[C@H](C(=O)O)CC4)n4ncnc(N)c34)[nH]c12 [OSI-027] (partner 0.5 µM)
How it was run: as §1

[3] = compound: C#Cc1cccc(Nc2ncnc3cc(OC)c(OCCCCCCC(=O)NO)cc23)c1 [CUDC-101] + Cc1cc(Nc2cc(N3CCN(C)CC3)nc(Sc3ccc(NC(=O)C4CC4)cc3)n2)n[nH]1 [Tozasertib] (partner 0.1 µM)
How it was run: as §1

[4] = compound: C1=CC=C2C(=C1)N=C(S2)C(C#N)C3=NC(=NC=C3)NCCC4=CN=CC=C4 + O=C(CCCCCCC(=O)Nc1ccccc1)NO [Vorinostat] (partner 1 µM)
How it was run: as §1

Cell Line | relative viability ([1]; first compound 0.005 µM) | relative viability ([1]; first compound 0.01581 µM) | relative viability ([1]; first compound 0.05 µM) | relative viability ([1]; first compound 0.1581 µM) | relative viability ([1]; first compound 0.5 µM) | relative viability ([2]; first compound 0.005 µM) | relative viability ([2]; first compound 0.01581 µM) | relative viability ([2]; first compound 0.05 µM) | relative viability ([2]; first compound 0.1581 µM) | relative viability ([2]; first compound 0.5 µM) | relative viability ([3]; first compound 0.01 µM) | relative viability ([3]; first compound 0.03162 µM) | relative viability ([3]; first compound 0.1 µM) | relative viability ([3]; first compound 0.3162 µM) | relative viability ([3]; first compound 1 µM) | relative viability ([4]; first compound 0.005 µM) | relative viability ([4]; first compound 0.01581 µM) | relative viability ([4]; first compound 0.05 µM) | relative viability ([4]; first compound 0.1581 µM) | relative viability ([4]; first compound 0.5 µM)
NCI-H2023 | 0.602 | 0.532 | 0.547 | 0.538 | 0.489 | 0.285 | 0.418 | 0.31 | 0.355 | 0.275 | 0.336 | 0.337 | 0.363 | 0.328 | 0.293 | 0.566 | 1.09 | 0.454 | 0.763 | 0.607
SK-LU-1 | 0.461 | 0.437 | 0.413 | 0.532 | 0.474 | 0.278 | 0.374 | 0.349 | 0.345 | 0.297 | 0.336 | 0.322 | 0.367 | 0.309 | 0.269 | 0.643 | 0.859 | 0.787 | 0.911 | 0.685
LCLC-97TM1 | 0.152 | 0.202 | 0.172 | 0.239 | 0.2 | 0.562 | 0.701 | 0.537 | 0.607 | 0.572 | 0.197 | 0.357 | 0.152 | 0.195 | 0.104 | 0.608 | 0.694 | 0.724 | 0.725 | 0.624
NCI-H1915 |  | 0.318 | 0.304 | 0.329 | 0.305 | 0.623 | 0.583 | 0.619 | 0.671 | 0.584 | 0.437 | 0.458 | 0.429 | 0.357 | 0.288 |  | 0.515 | 0.519 | 0.519 | 0.512
NCI-H358 | 0.125 | 0.132 | 0.113 | 0.139 | 0.15 | 0.726 | 0.749 | 0.805 | 0.913 | 0.739 | 0.103 | 0.117 | 0.127 | 0.101 | 0.114 | 0.568 | 0.642 | 0.557 | 0.708 | 0.558
LK-2 | 0.535 | 0.604 | 0.907 | 0.74 | 0.838 | 0.2 | 0.187 | 0.201 | 0.189 | 0.195 | 0.149 | 0.222 | 0.185 | 0.195 | 0.139 | 0.294 | 0.278 | 0.369 | 0.333 | 0.355
EPLC-272H | 0.392 | 0.277 | 0.301 | 0.336 | 0.265 | 0.217 | 0.264 | 0.254 | 0.257 | 0.301 | 0.216 | 0.284 | 0.306 | 0.231 | 0.121 |  | 0.519 | 0.451 | 0.395 | 0.178
A-427 | 0.882 | 0.714 | 0.683 | 0.81 | 0.804 | 0.481 | 0.467 | 0.442 | 0.475 | 0.39 | 0.211 | 0.227 | 0.219 | 0.205 | 0.165 | 0.9 | 0.86 | 0.811 | 0.902 | 0.887
NCI-H1755 | 0.764 | 0.736 | 0.746 | 0.848 | 0.761 | 0.709 | 0.733 | 0.727 | 0.745 | 0.67 | 0.478 | 0.563 | 0.572 | 0.602 | 0.584 | 0.803 | 0.88 | 0.74 | 0.91 | 0.713
NCI-H838 | 0.576 | 0.507 | 0.492 | 0.561 | 0.593 | 0.4 | 0.351 | 0.361 | 0.459 | 0.396 | 0.265 | 0.266 | 0.329 | 0.265 | 0.264 | 0.751 | 0.747 | 0.661 | 0.707 | 0.681
ABC-1 |  |  |  |  |  | 0.592 | 0.407 | 0.51 | 0.606 | 0.517 | 0.139 | 0.186 | 0.189 | 0.166 | 0.128 | 1.13 |  | 1.03 | 1.33 | 0.985
NCI-H2228 | 0.357 | 0.447 | 0.512 | 0.526 | 0.46 | 0.404 | 0.556 | 0.561 | 0.578 | 0.492 | 0.255 | 0.237 | 0.263 | 0.317 | 0.194 | 0.449 | 0.629 | 0.83 | 0.646 | 0.664
NCI-H1793 |  | 0.397 | 0.423 | 0.475 | 0.488 | 0.276 | 0.303 | 0.215 | 0.261 | 0.245 | 0.321 | 0.237 | 0.325 | 0.293 | 0.375 |  | 0.465 | 0.713 | 0.829 | 0.811
NCI-H1563 |  |  |  |  |  | 0.643 | 0.744 | 0.705 | 0.838 | 0.618 |  |  |  |  |  |  |  |  |  | 
NCI-H661 | 0.423 | 0.535 | 0.542 | 0.674 | 0.589 | 0.638 | 0.687 | 0.689 | 0.748 | 0.682 | 0.356 | 0.331 | 0.362 | 0.342 | 0.248 | 0.81 | 0.85 | 0.73 | 0.831 | 0.862
EKVX | 0.228 | 0.328 | 0.282 | 0.299 | 0.294 | 0.736 | 0.909 | 0.681 | 0.69 | 0.659 | 0.392 | 0.32 | 0.394 | 0.366 | 0.295 | 0.506 | 0.731 | 0.677 | 0.821 | 0.741
NCI-H1650 | 0.49 | 0.492 | 0.604 | 0.715 | 0.513 | 0.557 | 0.56 | 0.611 | 0.689 | 0.354 | 0.398 | 0.318 | 0.305 | 0.383 | 0.267 | 0.472 | 0.597 | 0.535 | 0.676 | 0.439
NCI-H1623 |  |  |  |  |  | 0.488 | 0.386 | 0.397 | 0.553 | 0.345 | 0.406 | 0.379 | 0.389 | 0.356 | 0.272 |  |  |  |  | 
